Assay: Clinical laboratory findings: chemistry; data mean (standard deviation)
Assay type: in vivo, healthy men
Text: Data are mean (standard deviation).

C[C@@H](N)c1cc(Cl)ccc1Cn1c(=S)[nH]c(=O)c2[nH]ccc21 [AZD4831]
ALP (5 mg fasted, 24 h): 0.997 (0.210) µkat L^–1 | ALT (5 mg fasted, 24 h): 0.397 (0.159) µkat L^–1 | AST (5 mg fasted, 24 h): 0.370 (0.103) µkat L^–1 | Albumin (5 mg fasted, 24 h): 42.6 (2.4) g L^–1 | Bilirubin (5 mg fasted, 24 h): 12.3 (2.6) µmol L^–1 | CRP (5 mg fasted, 24 h): 0.38 (0.22) mg L^–1 | Calcium (5 mg fasted, 24 h): 2.36 (0.04) mmol L^–1 | Creatinine (5 mg fasted, 24 h): 82.2 (10.3) µmol L^–1 | GGT (5 mg fasted, 24 h): 0.288 (0.103) µkat L^–1 | Glucose (5 mg fasted, 24 h): 4.69 (0.32) mmol L^–1 | Phosphate (5 mg fasted, 24 h): 1.12 (0.09) mmol L^–1 | Potassium (5 mg fasted, 24 h): 4.14 (0.23) mmol L^–1 | Sodium (5 mg fasted, 24 h): 136.3 (0.8) mmol L^–1 | Urea (5 mg fasted, 24 h): 4.66 (0.90) mmol L^–1 | ALP (5 mg fasted, 48 h): 0.989 (0.186) µkat L^–1 | ALT (5 mg fasted, 48 h): 0.405 (0.142) µkat L^–1 | AST (5 mg fasted, 48 h): 0.357 (0.077) µkat L^–1 | Albumin (5 mg fasted, 48 h): 43.3 (2.1) g L^–1 | Bilirubin (5 mg fasted, 48 h): 10.6 (2.3) µmol L^–1 | CRP (5 mg fasted, 48 h): 0.48 (0.40) mg L^–1 | Calcium (5 mg fasted, 48 h): 2.38 (0.04) mmol L^–1 | Creatinine (5 mg fasted, 48 h): 80.9 (4.7) µmol L^–1 | GGT (5 mg fasted, 48 h): 0.287 (0.105) µkat L^–1 | Glucose (5 mg fasted, 48 h): 4.76 (0.32) mmol L^–1 | Phosphate (5 mg fasted, 48 h): 0.99 (0.12) mmol L^–1 | Potassium (5 mg fasted, 48 h): 4.23 (0.16) mmol L^–1 | Sodium (5 mg fasted, 48 h): 137.5 (0.6) mmol L^–1 | Urea (5 mg fasted, 48 h): 4.52 (1.08) mmol L^–1 | ALP (5 mg fasted, follow up): 1.094 (0.227) µkat L^–1 | ALT (5 mg fasted, follow up): 0.407 (0.063) µkat L^–1 | AST (5 mg fasted, follow up): 0.413 (0.097) µkat L^–1 | Albumin (5 mg fasted, follow up): 45.3 (1.3) g L^–1 | Bilirubin (5 mg fasted, follow up): 12.5 (3.3) µmol L^–1 | CRP (5 mg fasted, follow up): 1.27 (1.43) mg L^–1 | Calcium (5 mg fasted, follow up): 2.42 (0.04) mmol L^–1 | Creatinine (5 mg fasted, follow up): 84.8 (9.1) µmol L^–1 | GFR (5 mg fasted, follow up): 98 (15) mL min^–1 1.73m^–2 | GGT (5 mg fasted, follow up): 0.307 (0.093) µkat L^–1 | Glucose (5 mg fasted, follow up): 4.78 (0.68) mmol L^–1 | Phosphate (5 mg fasted, follow up): 1.11 (0.10) mmol L^–1 | Potassium (5 mg fasted, follow up): 4.32 (0.22) mmol L^–1 | Sodium (5 mg fasted, follow up): 138.4 (1.5) mmol L^–1 | Urea (5 mg fasted, follow up): 4.57 (1.29) mmol L^–1 | ALP (15 mg fasted, 24 h): 1.165 (0.364) µkat L^–1 | ALT (15 mg fasted, 24 h): 0.475 (0.222) µkat L^–1 | AST (15 mg fasted, 24 h): 0.394 (0.098) µkat L^–1 | Albumin (15 mg fasted, 24 h): 43.2 (2.7) g L^–1 | Bilirubin (15 mg fasted, 24 h): 14.5 (6.3) µmol L^–1 | CRP (15 mg fasted, 24 h): 0.53 (0.28) mg L^–1 | Calcium (15 mg fasted, 24 h): 2.35 (0.11) mmol L^–1 | Creatinine (15 mg fasted, 24 h): 76.2 (10.7) µmol L^–1 | GGT (15 mg fasted, 24 h): 0.504 (0.232) µkat L^–1 | Glucose (15 mg fasted, 24 h): 4.57 (0.21) mmol L^–1 | Phosphate (15 mg fasted, 24 h): 1.14 (0.14) mmol L^–1 | Potassium (15 mg fasted, 24 h): 4.12 (0.24) mmol L^–1 | Sodium (15 mg fasted, 24 h): 137.5 (1.0) mmol L^–1 | Urea (15 mg fasted, 24 h): 4.35 (0.61) mmol L^–1 | ALP (15 mg fasted, 48 h): 1.159 (0.329) µkat L^–1 | ALT (15 mg fasted, 48 h): 0.515 (0.255) µkat L^–1 | AST (15 mg fasted, 48 h): 0.406 (0.116) µkat L^–1 | Albumin (15 mg fasted, 48 h): 44.2 (2.6) g L^–1 | Bilirubin (15 mg fasted, 48 h): 13.6 (6.0) µmol L^–1 | CRP (15 mg fasted, 48 h): 0.62 (0.40) mg L^–1 | Calcium (15 mg fasted, 48 h): 2.37 (0.10) mmol L^–1 | Creatinine (15 mg fasted, 48 h): 75.9 (12.3) µmol L^–1 | GGT (15 mg fasted, 48 h): 0.501 (0.243) µkat L^–1 | Glucose (15 mg fasted, 48 h): 4.72 (0.23) mmol L^–1 | Phosphate (15 mg fasted, 48 h): 1.11 (0.16) mmol L^–1 | Potassium (15 mg fasted, 48 h): 4.23 (0.25) mmol L^–1 | Sodium (15 mg fasted, 48 h): 138.8 (0.8) mmol L^–1 | Urea (15 mg fasted, 48 h): 4.30 (0.74) mmol L^–1 | ALP (15 mg fasted, follow up): 1.240 (0.380) µkat L^–1 | ALT (15 mg fasted, follow up): 0.504 (0.193) µkat L^–1 | AST (15 mg fasted, follow up): 0.420 (0.085) µkat L^–1 | Albumin (15 mg fasted, follow up): 45.2 (3.1) g L^–1 | Bilirubin (15 mg fasted, follow up): 11.3 (5.5) µmol L^–1 | CRP (15 mg fasted, follow up): 1.37 (0.47) mg L^–1 | Calcium (15 mg fasted, follow up): 2.38 (0.14) mmol L^–1 | Creatinine (15 mg fasted, follow up): 78.4 (9.8) µmol L^–1 | GFR (15 mg fasted, follow up): 114 (12) mL min^–1 1.73m^–2 | GGT (15 mg fasted, follow up): 0.534 (0.262) µkat L^–1 | Glucose (15 mg fasted, follow up): 4.62 (0.45) mmol L^–1 | Phosphate (15 mg fasted, follow up): 1.15 (0.08) mmol L^–1 | Potassium (15 mg fasted, follow up): 4.39 (0.30) mmol L^–1 | Sodium (15 mg fasted, follow up): 136.9 (1.1) mmol L^–1 | Urea (15 mg fasted, follow up): 4.79 (1.46) mmol L^–1 | ALP (45 mg fasted, 24 h): 1.061 (0.228) µkat L^–1 | ALT (45 mg fasted, 24 h): 0.329 (0.098) µkat L^–1 | AST (45 mg fasted, 24 h): 0.293 (0.069) µkat L^–1 | Albumin (45 mg fasted, 24 h): 41.6 (2.4) g L^–1 | Bilirubin (45 mg fasted, 24 h): 12.0 (3.5) µmol L^–1 | CRP (45 mg fasted, 24 h): 0.77 (0.71) mg L^–1 | Calcium (45 mg fasted, 24 h): 2.34 (0.05) mmol L^–1 | Creatinine (45 mg fasted, 24 h): 75.8 (7.2) µmol L^–1 | GGT (45 mg fasted, 24 h): 0.315 (0.072) µkat L^–1 | Glucose (45 mg fasted, 24 h): 4.90 (0.29) mmol L^–1 | Phosphate (45 mg fasted, 24 h): 1.17 (0.08) mmol L^–1 | Potassium (45 mg fasted, 24 h): 4.29 (0.10) mmol L^–1 | Sodium (45 mg fasted, 24 h): 139.2 (1.7) mmol L^–1 | Urea (45 mg fasted, 24 h): 4.25 (0.47) mmol L^–1 | ALP (45 mg fasted, 48 h): 1.097 (0.257) µkat L^–1 | ALT (45 mg fasted, 48 h): 0.319 (0.095) µkat L^–1 | AST (45 mg fasted, 48 h): 0.288 (0.074) µkat L^–1 | Albumin (45 mg fasted, 48 h): 42.5 (2.7) g L^–1 | Bilirubin (45 mg fasted, 48 h): 12.3 (3.3) µmol L^–1 | CRP (45 mg fasted, 48 h): 0.58 (0.49) mg L^–1 | Calcium (45 mg fasted, 48 h): 2.34 (0.05) mmol L^–1 | Creatinine (45 mg fasted, 48 h): 73.2 (6.4) µmol L^–1 | GGT (45 mg fasted, 48 h): 0.312 (0.064) µkat L^–1 | Glucose (45 mg fasted, 48 h): 5.06 (0.19) mmol L^–1 | Phosphate (45 mg fasted, 48 h): 1.12 (0.09) mmol L^–1 | Potassium (45 mg fasted, 48 h): 4.18 (0.20) mmol L^–1 | Sodium (45 mg fasted, 48 h): 140.9 (2.2) mmol L^–1 | Urea (45 mg fasted, 48 h): 4.24 (0.55) mmol L^–1 | ALP (45 mg fasted, follow up): 1.165 (0.282) µkat L^–1 | ALT (45 mg fasted, follow up): 0.324 (0.059) µkat L^–1 | AST (45 mg fasted, follow up): 0.356 (0.054) µkat L^–1 | Albumin (45 mg fasted, follow up): 44.1 (2.6) g L^–1 | Bilirubin (45 mg fasted, follow up): 12.9 (5.6) µmol L^–1 | CRP (45 mg fasted, follow up): 2.89 (5.30) mg L^–1 | Calcium (45 mg fasted, follow up): 2.35 (0.04) mmol L^–1 | Creatinine (45 mg fasted, follow up): 74.6 (9.2) µmol L^–1 | GFR (45 mg fasted, follow up): 112 (12) mL min^–1 1.73m^–2 | GGT (45 mg fasted, follow up): 0.300 (0.052) µkat L^–1 | Glucose (45 mg fasted, follow up): 4.84 (0.54) mmol L^–1 | Phosphate (45 mg fasted, follow up): 1.12 (0.20) mmol L^–1 | Potassium (45 mg fasted, follow up): 4.18 (0.18) mmol L^–1 | Sodium (45 mg fasted, follow up): 139.5 (1.3) mmol L^–1 | Urea (45 mg fasted, follow up): 3.90 (0.63) mmol L^–1
